As usually defined, the melting point is the temperature of the solid-liquid transition.

These results are taken from publication PMC4958397, “Synthesis, antibacterial and antiproliferative potential of some new 1-pyridinecarbonyl-4-substituted thiosemicarbazide derivatives” (Medicinal Chemistry Research, 2016).

The subject of data set [1] is aerobic Gram-positive bacteria. As to the kind of experiment: Broth microdilution MIC, summary in text. In kind it is cell-based. The settings on record: range over compounds and strains; read-out: MIC against aerobic Gram-positive bacteria. The source says:
(§1) Panel reference strains of bacteria from the American Type Culture Collection or Polish Collection of Microorganisms, including aerobic Gram-positive bacteria: Staphylococcus aureus ATCC 25923 and Staphylococcus epidermidis ATCC 12228, and aerobic Gram-negative bacteria: Escherichia coli ATCC 25922 and Pseudomonas aeruginosa ATCC 9027, as well as microaerobic Gram-positive bacteria: Lactobacillus spp., Lactobacillus acidophilus PCM 2105, Streptococcus mutans PCM 2502 and Streptococcus sanguinis PCM 2335, were used. Microbial suspensions with an optical density of 0.5 McFarland standard at 1.5 × 10^8 CFU/mL (CFU: colony forming unit) were prepared in sterile 0.9 % NaCl. Mueller–Hinton (M–H) broth and M–H agar (Oxoid Ltd., England) for aerobic strains, and MRS Broth Lactobacillus, MRS Agar Lactobacillus (BioMaxima S.A., Poland), BHI Broth and BHI agar (BioMaxima S.A., Poland) for microaerobic strains were used in the microbial tests.
(§2) A broth microdilution method was used to evaluate the minimum inhibition concentration (MIC) according to the CLSI document (CLSI performance standards for antimicrobial susceptibility testing, 2008, Eighteenth International Supplement, CLSI document M7-MIC, Clinical Laboratory Standards Institute, Wayne) with some modifications. […] A serial doubling dilution of the compounds was prepared in 96-well plates (200 μL per well). A suitable medium (M-H Broth, MRS Broth Lactobacillus, BHI Broth) was used as a diluent. The final concentrations of derivatives were 1000–0.015 μg/mL. Finally, 2 μL of inoculum of the tested bacterial strain (1.5 × 10^8 CFU/mL) was added to each well. The tests were performed either at 36 °C for 18 h (aerobic strains) or at 40 h (microaerobic strains). After incubation, the panel was digitally analyzed at 600 nm using the microplate reader Bio Tech Synergy (USA) with a dedicated software system. The growth intensity in each well was compared with the negative and positive controls.

Data set [2] deals with pathogenic microaerobic bacteria (causing dental caries). As to the kind of experiment: Broth microdilution MIC, summary in text. Particulars: range over compounds and strains; read-out: MIC against pathogenic microaerobic bacteria. In kind it is cell-based.
Source text: as §1, §2
For orientation: Broth dilution looks for growth in wells or tubes with falling amounts of substance.

The nature of a further data set: Cytotoxicity MTT assay. The data set is classed as cell-based. Particulars: human, BJ cells (normal human skin fibroblasts), read-out: CC50 (concentration required for a 50 % reduction of cell viability). The method, then: Normal human skin fibroblasts (BJ), human hepatocellular carcinoma (HepG2) and human breast adenocarcinoma (MCF-7) were obtained from American Type Culture Collection (ATCC, England, UK). The cells were cultured in Eagle’s minimum essential medium (EMEM, ATCC) supplemented with 10 % fetal bovine serum (FBS, PAA Laboratories), 100 U/mL penicillin and 100 μg/mL streptomycin (Sigma-Aldrich). In the case of the MCF-7 cell line, the culture medium was additionally supplemented with 0.01 μg/mL of human recombinant insulin (Sigma-Aldrich). The cells were grown in 75-cm^2 flasks and maintained at 37 °C in a humidified atmosphere of 5 % CO2 and 95 % air.
In order to determine the cytotoxicity, BJ cells were seeded in flat-bottom 96-well plates in 100 μL of a complete growth medium at a concentration of 1.7 × 10^4 cells/well and incubated for 24 h at 37 °C in a humidified atmosphere of 5 % CO2. Immediately before drug treatment, the synthesized compounds (1, 2, 4, 5, 6, 7, 10) were dissolved in dimethyl sulfoxide (DMSO, Sigma-Aldrich) and then diluted in cell culture medium supplemented with 2 % FBS. […] After incubation, the growth medium was replaced with 100 μL of the appropriate serial dilutions of the investigated compounds. Untreated cells were used as negative controls, and different concentrations of DMSO were used as the solvent control. The cell cultures were incubated at 37 °C for 24 h. The cytotoxicity was estimated using the 3-(4,5-dimethylthiazol-2-yl)-2,5-diphenyltetrazolium bromide (MTT) assay as described by Mosmann with some modifications (Mosmann, [1983]). Briefly, the cells were incubated for 3 h with 25 μL of MTT solution ([…] in PBS buffer) per well. The MTT assay is a rapid colorimetric method based on the conversion of mitochondrial succinate dehydrogenase from yellow, soluble tetrazolium salt to blue formazan crystals to determine the number of viable cells. In order to dissolve formazan crystals in live cells, 100 μL of SDS-HCl solution (10 % SDS in 0.01 N HCl) was added per well. After overnight incubation, absorbance was measured at 570 nm using microplate reader (BioTek ELx50). The MTT assay was repeated in three independent experiments performed in octuplicates. The half-maximal cytotoxic concentration (CC50) was defined as the compound concentration (μg/mL) required to reduce cell viability to 50 %. Therapeutic index (TI) is a widely accepted parameter to represent the specificity of antibacterial agents for human (Begg et al., [1999]). In this study, the in vitro TI values were calculated as the ratio of CC50 (cytotoxic activity) and MIC (antibacterial activity); thus, greater values of in vitro therapeutic index indicate safer specificity for eukaryotic cells.
The data were analyzed using one-way ANOVA test followed by Dunnett’s test. Differences were considered as significant with p < 0.01 (GraphPad Prism 5, Version 5.04 Software). The values of CC50 and IC50 were calculated via 4-parameter nonlinear regression analyses using GraphPad Prism 5, version 5.04.
A general note: Tetrazolium assays rely on reduction of a dye to a coloured formazan, in cell work by metabolically active cells.

In another data set the test system is Lactobacillus spp. Description: Broth microdilution MIC. The data set is classed as cell-based.
Source text: as §1, §2

≈ marks a conversion by molar mass, not a printed value.

With `O=C(NNC(=S)Nc1ccc(Cl)cc1Cl)c1ccccn1` [Compound 4, 4-(2,4-Dichlorophenyl)-1-(pyridin-2-yl)carbonylthiosemicarbazide], the melting point was in the range of 158 to 160 °C. Besides, the MIC in data set [1] lay within 15.6 to 500 µg/mL. Moreover, in data set [2], the MIC lay within 7.81 to 500 µg/mL. In addition, in the data set “Cytotoxicity MTT assay”, the CC50 at 24 h came to 19.5 µg/mL (≈ 57.1 µM). Also, the MIC in the data set with Lactobacillus spp. (Lactobacillus, read-out: Minimum inhibitory concentration (MIC), Lactobacillus spp.) turned out to be 31.2 µg/mL.
Turning to `CCOc1ccc2nc3cc(N)ccc3c(N)c2c1` [Ethacridine lactate, ethacridine lactate, reference compound], the CC50 at 24 h in “Cytotoxicity MTT assay” is 6.88 µg/mL.
For `O=C(NNC(=S)Nc1ccccc1Cl)c1ccccn1` [Compound 2, 4-(2-Chlorophenyl)-1-(pyridin-2-yl)carbonylthiosemicarbazide], the melting point was 172 to 174 °C. Further, in data set [1], the MIC was in the range of 15.6 to 500 µg/mL. Moreover, the MIC in data set [2] lay in the range of 7.81 to 500 µg/mL.
Take `CSc1ccc(NC(=S)NNC(=O)c2cccnc2)cc1` [Compound 6, 4-(4-Methylthiophenyl)-1-(pyridin-3-yl)carbonylthiosemicarbazide]: the melting point is 176 to 177 °C. The MIC in data set [1] lay in the range of 15.6 to 500 µg/mL. In addition, the CC50 at 24 h in the data set “Cytotoxicity MTT assay” turned out to be 917 µg/mL (≈ 2880 µM). In addition, the “Minimum inhibitory concentration (MIC), Lactobacillus spp.” value in the data set with Lactobacillus spp. was “did not limit the growth”.
Molecule `O=C(NNC(=S)Nc1ccc(Cl)cc1Cl)c1cccnc1` [Compound 7, 4-(2,4-Dichlorophenyl)-1-(pyridin-3-yl)carbonylthiosemicarbazide] yielded a melting point of 196 to 197 °C. Besides, in “Cytotoxicity MTT assay”, the CC50 at 24 h worked out at 88.3 µg/mL (≈ 259 µM).
As for `[H]/N=C(\N/C(=N/[H])NCCCCCCNC(=N)NC(=N)Nc1ccc(Cl)cc1)Nc1ccc(Cl)cc1` [CLX, chlorhexidine digluconate, reference compound], in the data set “Cytotoxicity MTT assay”, the CC50 at 24 h is 8.46 µg/mL.
